Assay results reported in patent US20200131669A1, “CYCLIC PEPTIDE COMPOUND HAVING HIGH MEMBRANE PERMEABILITY, AND LIBRARY CONTAINING SAME” (Chugai Seiyaku Kabushiki Kaisha, priority 2017, published 2020).
Starred links: 1 amine or outer side, 2 acyl side, 3 side chain; linkers in the order of their positions; H or OH if unused. Positions of bridges follow the written chain, without caps; N, C: chain ends. Non-standard residues stand in square brackets, D forms with d. Residues, ends and D or L forms follow the SMILES beside them. *: point of attachment. NMeAbu(4-morpholino) = CN[C@@H](CCN1CCOCC1)C(=O)O; Glu(NHSO2Me) = CS(=O)(=O)NC(=O)CC[C@H](N)C(=O)O; Phe(4-CF3) = N[C@@H](Cc1ccc(C(F)(F)F)cc1)C(=O)O; NMePhe(3-Cl) = CN[C@@H](Cc1cccc(Cl)c1)C(=O)O; NMePhe(4-Cl) = CN[C@@H](Cc1ccc(Cl)cc1)C(=O)O; hPhe(3-Cl) = N[C@@H](CCc1cccc(Cl)c1)C(=O)O; NMehPhe = CN[C@@H](CCc1ccccc1)C(=O)O; X9 = O=C(CN(CCOc1ccccc1)[*:1])[*:2]; NMeF = CN[C@@H](Cc1ccccc1)C(=O)O; NMeI = CC[C@H](C)[C@H](NC)C(=O)O; Butyl(3-Me,3-OH) = CC(C)(O)CC*; NMeL = CN[C@@H](CC(C)C)C(=O)O; Propyl(2R-OH) = C[C@@H](O)C*; NMeV = CN[C@H](C(=O)O)C(C)C; NMeAbu = CC[C@H](NC)C(=O)O; NMeA = CN[C@@H](C)C(=O)O; Piperidide = C1CCN(*)CC1; dNMeA = CN[C@H](C)C(=O)O; NBuGly = CCCCNCC(=O)O; Isopentyl = CC(C)CC*; Sar = CNCC(=O)O; tBu = CC(C)(C)*; CHF2 = FC(F)*

experiment: Caco-2 membrane permeability, improved method as used in the following Examples (96-well, 20 to 24 h preincubation); type: in vitro ADME; settings: human, Caco-2, Caco-2
In short: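 Caco-2 monolayers were grown three weeks and preincubated 20–24 h at 37 °C with compound in DMEM+FaSSIF (1% DMSO) apically. The assay then used compound in FaSSIF/HBSS (1% DMSO, pH 6.0) apically and HBSS with 4% BSA (pH 7.4) basally. Basal samples were taken at 180 min for LC/MS, and Papp (cm/sec) was calculated.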

| SMILES | Papp A→B at 180 min |
| --- | --- |
| CC[C@H](C)[C@H]1C(=O)N[C@@H](COC[C@@H](C)O)C(=O)N(C)CC(=O)N(C)[C@@H](CC(C)C)C(=O)N[C@H](C(=O)N2CCCCC2)CC(=O)N(C)[C@@H](C)C(=O)N[C@@H](CC(C)C)C(=O)N(C)[C@@H](CC(C)C)C(=O)N(C)[C@@H](Cc2ccccc2)C(=O)N[C@@H](CC(C)C)C(=O)N(C)[C@@H](Cc2ccccc2)C(=O)N1C [pd494] ([NMeA]L[NMeL][NMeF]L[NMeF][NMeI]S(Propyl(2R-OH))[Sar][NMeL]D-Piperidide; lactam N-11) | 5.2 ×10⁻⁶ cm/s |
| CC(C)C[C@@H]1NC(=O)[C@H](C)N(C)C(=O)C[C@@H](C(=O)N2CCCCC2)NC(=O)[C@H](CC(C)C)N(C)C(=O)CN(C)C(=O)[C@H]([C@@H](C)O)NC(=O)[C@H](CC(C)C)N(C)C(=O)[C@H](CCc2ccccc2)N(C)C(=O)[C@H](COCCC(C)(C)O)NC(=O)[C@H](Cc2ccccc2)N(C)C(=O)[C@H](CC(C)C)N(C)C1=O [pd437] ([NMeA]L[NMeL][NMeF]S(Butyl(3-Me,3-OH))[NMehPhe][NMeL]T[Sar][NMeL]D-Piperidide; lactam N-11) | 1.3 ×10⁻⁶ cm/s |
| CC(C)C[C@@H]1NC(=O)C[C@@H](C(=O)N2CCCCC2)NC(=O)[C@H](CC(C)C)N(C)C(=O)[C@H](CC(C)C)N(C)C(=O)[C@H](Cc2ccc(OC(F)F)cc2)NC(=O)[C@H](C)N(C)C(=O)CN(C)C(=O)[C@H]([C@@H](C)O)NC(=O)[C@H](CC(C)C)N(C)C(=O)[C@H](C(C)C)NC(=O)[C@H](Cc2ccccc2)N(C)C1=O [pd477] (L[NMeF]V[NMeL]T[Sar][NMeA]Y(CHF2)[NMeL][NMeL]D-Piperidide; lactam N-11) | 2.2 ×10⁻⁶ cm/s |
| CC(C)C[C@@H]1NC(=O)[C@H](CC(C)C)N(C)C(=O)CN(C)C(=O)[C@H]([C@@H](C)O)NC(=O)[C@H](CC(C)C)N(C)C(=O)[C@H](CCc2cccc(Cl)c2)NC(=O)[C@H](C)N(C)C(=O)[C@@H](C(C)C)NC(=O)C[C@@H](C(=O)N2CCCCC2)NC(=O)[C@H](C(C)C)N(C)C(=O)[C@H](Cc2ccccc2)N(C)C1=O [pd355] ([dV][NMeA][hPhe(3-Cl)][NMeL]T[Sar][NMeL]L[NMeF][NMeV]D-Piperidide; lactam N-11) | 2.3 ×10⁻⁶ cm/s |
| CCCCN1CC(=O)N(C)[C@@H](Cc2cccc(Cl)c2)C(=O)N[C@@H](CCC(=O)NS(C)(=O)=O)C(=O)N(C)[C@@H](CC(C)C)C(=O)N[C@@H]([C@@H](C)O)C(=O)N(CCCC)CC(=O)N(C)[C@@H](Cc2ccccc2)C(=O)N(C)[C@@H](CC(C)C)C(=O)N[C@@H](CC(C)C)C(=O)N(C)[C@@H](CC(C)C)C(=O)N[C@H](C(=O)N2CCCCC2)CC1=O [pd66] ([NBuGly][NMePhe(3-Cl)][Glu(NHSO2Me)][NMeL]T[NBuGly][NMeF][NMeL]L[NMeL]D-Piperidide; lactam N-11) | 0.09 ×10⁻⁶ cm/s |
| CC[C@H](C)[C@@H]1NC(=O)[C@H](CC(C)C)N(C)C(=O)[C@@H](C)NC(=O)C[C@@H](C(=O)N2CCCCC2)NC(=O)[C@H](CC)N(C)C(=O)[C@H](Cc2ccccc2)N(C)C(=O)[C@H](COC(C)(C)C)NC(=O)[C@H](CC(C)C)N(C)C(=O)[C@H](CC)N(C)C(=O)[C@H]([C@@H](C)O)NC(=O)CN(CCOc2ccccc2)C1=O [pd423] ([dA][NMeL]I[X9]T[NMeAbu][NMeL]S(tBu)[NMeF][NMeAbu]D-Piperidide; lactam N-11) | 1 ×10⁻⁶ cm/s |
| CC(C)CCOC[C@@H]1NC(=O)[C@H](C)N(C)C(=O)C[C@@H](C(=O)N2CCCCC2)NC(=O)[C@H](CC(C)C)N(C)C(=O)CN(C)C(=O)[C@H]([C@@H](C)O)NC(=O)[C@H](CC(C)C)N(C)C(=O)[C@H](Cc2ccccc2)N(C)C(=O)[C@H](C(C)C)NC(=O)[C@H](Cc2ccccc2)N(C)C(=O)[C@H](CC(C)C)N(C)C1=O [pd304] ([NMeA]S(Isopentyl)[NMeL][NMeF]V[NMeF][NMeL]T[Sar][NMeL]D-Piperidide; lactam N-11) | 2.2 ×10⁻⁶ cm/s |
| CC(C)C[C@H]1C(=O)N[C@@H](COC(C)(C)C)C(=O)N(C)[C@@H](C)C(=O)N(C)[C@@H](CC(C)C)C(=O)N[C@H](C(=O)N2CCCCC2)CC(=O)N[C@H](C)C(=O)N(C)[C@@H](Cc2ccccc2)C(=O)N[C@@H](COc2ccccc2Cl)C(=O)N(C)[C@@H](CC(C)C)C(=O)N[C@@H]([C@@H](C)O)C(=O)N(C)CC(=O)N1C [pd340] | 1.2 ×10⁻⁶ cm/s |
| CCCCN1CC(=O)N(C)[C@@H](CC(C)C)C(=O)N[C@@H](COC(C)(C)C)C(=O)N(C)[C@@H](Cc2ccccc2)C(=O)N(C)[C@@H](C(C)C)C(=O)N[C@H](C(=O)N2CCCCC2)CC(=O)N[C@H](CC(C)C)C(=O)N(C)[C@@H](Cc2ccccc2)C(=O)N[C@@H](CC(C)C)C(=O)N(C)[C@@H](CCN2CCOCC2)C(=O)N[C@@H]([C@@H](C)O)C1=O [pd452] ([dL][NMeF]L[NMeAbu(4-morpholino)]T[NBuGly][NMeL]S(tBu)[NMeF][NMeV]D-Piperidide; lactam N-11) | 1.3 ×10⁻⁶ cm/s |

same assay, conditions: human, Caco-2, Caco-2 (cm/sec)

| SMILES | Papp A→B at 180 min |
| --- | --- |
| CC(C)C[C@@H]1NC(=O)[C@H](CC(C)C)N(C)C(=O)[C@H](C)N(C)C(=O)C[C@@H](C(=O)N2CCCCC2)NC(=O)[C@H](CC(C)C)N(C)C(=O)[C@H](Cc2ccccc2)N(C)C(=O)[C@H](Cc2ccccc2)N(C)C(=O)[C@H]([C@@H](C)O)NC(=O)[C@H](Cc2ccccc2)N(C)C1=O [pd211] ([NMeA][NMeL]L[NMeF]T[NMeF][NMeF][NMeL]D-Piperidide; lactam N-9) | 1.4 ×10⁻⁶ cm/s |
| CC[C@H](C)[C@@H]1NC(=O)[C@H](C(C)C)N(C)C(=O)[C@H](C)N(C)C(=O)[C@H]([C@@H](C)O)NC(=O)[C@H](CC(C)C)N(C)C(=O)[C@H](Cc2ccc(C(F)(F)F)cc2)NC(=O)[C@H](CC(C)C)N(C)C(=O)[C@@H](C)N(C)C(=O)C[C@@H](C(=O)N2CCCCC2)NC(=O)[C@H](CC(C)C)NC(=O)[C@@H]2CCCN2C1=O [pd133] ([dNMeA][NMeL][Phe(4-CF3)][NMeL]T[NMeA][NMeV]IPLD-Piperidide; lactam N-11) | 2.3 ×10⁻⁶ cm/s |
| CC(C)C[C@@H]1NC(=O)[C@H](Cc2ccccc2)N(C)C(=O)[C@H](COC(C)(C)C)NC(=O)[C@H](Cc2ccccc2)N(C)C(=O)[C@H](C)N(C)C(=O)[C@H](CC(C)C)N(C)C(=O)[C@@H](C)NC(=O)C[C@@H](C(=O)N2CCCCC2)NC(=O)[C@H](Cc2ccccc2)N(C)C(=O)[C@H]([C@@H](C)O)NC(=O)[C@H](CC(C)C)N(C)C1=O [pd220] ([dA][NMeL][NMeA][NMeF]S(tBu)[NMeF]L[NMeL]T[NMeF]D-Piperidide; lactam N-11) | 1.1 ×10⁻⁶ cm/s |
| CC[C@H](C)[C@@H]1NC(=O)[C@H](Cc2ccc(Cl)cc2)N(C)C(=O)CN(C)C(=O)C[C@@H](C(=O)N2CCCCC2)NC(=O)[C@H](C(C)C)N(C)C(=O)[C@H](COC(C)(C)C)NC(=O)[C@H](CC(C)C)N(C)C(=O)[C@H](Cc2ccccc2)N(C)C(=O)CN(C)C(=O)[C@H]([C@@H](C)O)NC(=O)[C@H](CC(C)C)N(C)C1=O [pd176] ([Sar][NMePhe(4-Cl)]I[NMeL]T[Sar][NMeF][NMeL]S(tBu)[NMeV]D-Piperidide; lactam N-11) | 1.2 ×10⁻⁶ cm/s |
| CC[C@H](C)[C@@H]1NC(=O)[C@H](CC(C)C)NC(=O)[C@H](CC(C)C)N(C)C(=O)[C@H](C)NC(=O)C[C@@H](C(=O)N2CCCCC2)NC(=O)[C@H](CC(C)C)N(C)C(=O)[C@H]([C@@H](C)O)NC(=O)[C@H](Cc2ccc(C(F)(F)F)cc2)NC(=O)[C@H](CC(C)C)N(C)C1=O [pd144] (A[NMeL]LI[NMeL][Phe(4-CF3)]T[NMeL]D-Piperidide; lactam N-9) | 2.1 ×10⁻⁶ cm/s |
| CC(C)C[C@H]1C(=O)N[C@@H]([C@@H](C)O)C(=O)N2CCC[C@H]2C(=O)N(C)[C@@H](C)C(=O)N[C@@H](Cc2ccc(C(F)(F)F)cc2)C(=O)N(C)[C@@H](CC(C)C)C(=O)N(C)[C@@H](CC(C)C)C(=O)N[C@H](C(=O)N2CCCCC2)CC(=O)N1C [pd136] ([NMeL]TP[NMeA][Phe(4-CF3)][NMeL][NMeL]D-Piperidide; lactam N-8) | 1.6 ×10⁻⁶ cm/s |
| CC(C)C[C@H]1C(=O)N[C@H](C(=O)N(C)[C@@H](Cc2ccccc2)C(=O)N[C@@H](C)C(=O)N2CCCCC2)CC(=O)N(C)[C@@H](C)C(=O)N[C@@H]([C@@H](C)O)C(=O)N(C)[C@@H](C)C(=O)N(C)[C@@H](CC(C)C)C(=O)N[C@@H](C(C)C)C(=O)N(C)[C@@H](Cc2ccccc2)C(=O)N[C@@H](Cc2ccccc2)C(=O)N1C [pd212] ([NMeA]T[NMeA][NMeL]V[NMeF]F[NMeL]D[NMeF]A-Piperidide; lactam N-9) | 1.4 ×10⁻⁶ cm/s |
| CC[C@H](C)[C@H]1C(=O)N[C@@H]([C@@H](C)O)C(=O)N(C)CC(=O)N(C)[C@@H](CC(C)C)C(=O)N[C@H](C(=O)N2CCCCC2)CC(=O)N(C)[C@@H](C)C(=O)N[C@@H](CC(C)C)C(=O)N(C)[C@@H](CC(C)C)C(=O)N(C)[C@@H](CC(C)C)C(=O)N[C@@H](Cc2ccc(C(F)(F)F)cc2)C(=O)N(C)[C@@H](C)C(=O)N1C [pd142] ([NMeA]L[NMeL][NMeL][Phe(4-CF3)][NMeA][NMeI]T[Sar][NMeL]D-Piperidide; lactam N-11) | 2.9 ×10⁻⁶ cm/s |

same assay, conditions: human, Caco-2; read-out: Caco-2

| SMILES | Papp A→B at 180 min |
| --- | --- |
| CC(C)C[C@@H]1NC(=O)[C@H](CC(C)C)N(C)C(=O)[C@H](C(C)C)NC(=O)C[C@@H](C(=O)N2CCCCC2)NC(=O)[C@H](CC(C)C)N(C)C(=O)[C@H]([C@@H](C)O)NC(=O)[C@H](Cc2ccc(C(F)(F)F)cc2)NC(=O)[C@H](CC(C)C)N(C)C(=O)[C@H](C)N(C)C1=O [pd146] (V[NMeL]L[NMeA][NMeL][Phe(4-CF3)]T[NMeL]D-Piperidide; lactam N-9) | 1.7 ×10⁻⁶ cm/s |
